# Assay results as given in PMC8874984, “Improved Cell-Potent and Selective Peptidomimetic Inhibitors of Protein N-Terminal Methyltransferase 1” (Molecules, 2022).
# Read-outs that look alike come from different tables or passages of the source.
# Experiments:
# [1] = Cytotoxicity by alamarBlue assay in HCT116 cells; conditions: human, GI50, HCT116 cells
# Procedure: (§1) Cell viability assay. HCT116 cells were seeded as 5,000 cells/well on 96-well plates in the
# (§2) presence of 1x PBS or DC541 at different concentrations for 24, 48, or 72 hours. Cell viability
# (§3) was assessed using 0.2 mg/ml resazurin solutions prepared from resazurin sodium salt (Acros
# (§4) OrganicsTM, AC418900050) dissolved in sterile 1 x PBS. Then, the cells were incubated with
# (§5) 10 µl resazurin solution (10% of cell culture volume) for four hours at 37 °C. The fluorescence
# (§6) Cell viability was calculated as 100% × (fluorescence of treated cells – fluorescence of
# (§7) background controls) / (fluorescence of 1x PBS controls – fluorescence of background
# [2] = tested on: NTMT1 knockout HCT116 cells; assay: Cytotoxicity by alamarBlue assay in NTMT1 knockout HCT116 cells; format: cell-based, human; conditions: wild-type and NTMT1 knockout HCT116 cells
# [3] = target: T1, NTMT1 (Homo sapiens, UniProt Q9BV86); assay: SAHH-coupled fluorescence assay of NTMT1 inhibition; format: biochemical; conditions: for Expt. ΔGbind ± σ: estimated from the IC50 values in Table 1; for IC50/IC50 (DC541): ratio of NTMT1 IC50 to that of DC541
# T1 construct: made in house
# T1 sequence (Q9BV86 1-223): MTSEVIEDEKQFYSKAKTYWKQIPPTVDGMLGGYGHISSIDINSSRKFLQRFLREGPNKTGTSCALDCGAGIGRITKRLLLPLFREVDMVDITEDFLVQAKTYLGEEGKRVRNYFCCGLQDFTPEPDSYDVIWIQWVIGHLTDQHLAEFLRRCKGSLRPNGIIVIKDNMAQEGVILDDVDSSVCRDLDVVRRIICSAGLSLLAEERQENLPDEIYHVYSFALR
# [4] = tested on: me3-SET; assay: Cellular me3-SET level in HCT116 cells; format: cell-based, human
# [5] = target: T2, G9a (Homo sapiens, UniProt Q96KQ7); assay: In-house selectivity study, fluorescence assay: G9a; format: biochemical; conditions: read-out: inhibition of enzyme activity
# T2 sequence (Q96KQ7 1-1210): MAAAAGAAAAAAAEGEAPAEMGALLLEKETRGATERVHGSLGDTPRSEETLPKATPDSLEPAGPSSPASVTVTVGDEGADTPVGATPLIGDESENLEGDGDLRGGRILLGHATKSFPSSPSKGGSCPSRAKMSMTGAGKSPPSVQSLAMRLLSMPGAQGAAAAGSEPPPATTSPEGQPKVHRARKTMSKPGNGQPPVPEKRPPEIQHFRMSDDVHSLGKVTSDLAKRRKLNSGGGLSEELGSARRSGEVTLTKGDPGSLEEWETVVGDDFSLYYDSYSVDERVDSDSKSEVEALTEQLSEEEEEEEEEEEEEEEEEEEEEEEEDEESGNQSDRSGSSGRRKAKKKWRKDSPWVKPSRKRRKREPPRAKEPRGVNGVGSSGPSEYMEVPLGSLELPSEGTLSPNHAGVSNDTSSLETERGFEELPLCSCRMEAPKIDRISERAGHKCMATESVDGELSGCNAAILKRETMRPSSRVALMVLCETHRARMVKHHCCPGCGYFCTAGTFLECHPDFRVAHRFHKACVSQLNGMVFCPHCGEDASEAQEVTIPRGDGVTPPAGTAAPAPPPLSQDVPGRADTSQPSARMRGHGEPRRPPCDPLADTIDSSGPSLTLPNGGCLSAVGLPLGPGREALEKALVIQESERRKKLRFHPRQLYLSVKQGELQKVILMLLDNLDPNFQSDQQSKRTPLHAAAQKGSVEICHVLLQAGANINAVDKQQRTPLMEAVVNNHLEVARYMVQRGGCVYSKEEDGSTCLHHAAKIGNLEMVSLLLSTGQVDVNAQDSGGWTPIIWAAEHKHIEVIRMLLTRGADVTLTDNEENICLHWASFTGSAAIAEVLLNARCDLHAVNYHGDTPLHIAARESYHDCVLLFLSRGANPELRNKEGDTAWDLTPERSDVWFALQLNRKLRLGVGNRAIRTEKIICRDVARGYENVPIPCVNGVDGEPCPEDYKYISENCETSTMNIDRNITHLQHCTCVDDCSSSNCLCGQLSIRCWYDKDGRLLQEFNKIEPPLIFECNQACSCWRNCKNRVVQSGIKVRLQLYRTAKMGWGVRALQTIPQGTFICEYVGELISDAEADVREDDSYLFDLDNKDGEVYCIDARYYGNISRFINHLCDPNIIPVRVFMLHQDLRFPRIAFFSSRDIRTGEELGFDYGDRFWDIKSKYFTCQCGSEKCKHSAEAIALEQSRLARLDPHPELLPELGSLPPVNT
# [6] = target: T3, NNMT (Homo sapiens, UniProt P40261); assay: In-house selectivity study, fluorescence assay: NNMT; format: biochemical; conditions: read-out: inhibition of enzyme activity
# T3 construct: made in house
# T3 sequence (P40261 1-264): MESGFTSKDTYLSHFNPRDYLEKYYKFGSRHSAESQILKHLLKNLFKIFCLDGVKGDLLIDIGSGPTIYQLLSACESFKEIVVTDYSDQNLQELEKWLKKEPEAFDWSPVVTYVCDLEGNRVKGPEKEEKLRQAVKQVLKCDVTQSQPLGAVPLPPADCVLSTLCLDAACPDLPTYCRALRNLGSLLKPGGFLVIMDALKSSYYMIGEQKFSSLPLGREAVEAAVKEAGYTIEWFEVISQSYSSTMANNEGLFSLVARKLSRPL
# [7] = target: T4, PRMT1 (Homo sapiens, UniProt Q99873); assay: In-house selectivity study, fluorescence assay: PRMT1; format: biochemical; conditions: read-out: inhibition of enzyme activity
# T4 construct: made in house
# [8] = in vitro; conditions: PAMPA
# [9] = tested on: cellular α-N-terminal methylation level in HCT116 cells; assay: Cellular N-terminal methylation level, Western blot with anti-me3-SPK antibody; format: cell-based; conditions: Homo sapiens, HCT-116, cellular N-terminal methylation inhibition, n = 2
# Procedure: Next, we investigated the effects of all peptidomimetic inhibitors with GI50 > 100 µM and IC50 < 1 µM on the cellular α-N-terminal methylation level in HCT116 cells (Table 2). Then, we examined the top three cell-potent peptidomimetic inhibitors 1d–f on the dose-response of inhibition of cellular N-terminal methylation levels. […] As the biochemical IC50 value of GD562 was about three-fold higher than DC541, we proposed that the improved cellular inhibition of GD562 may be attributed to its increased permeability with higher cLogP than DC541.
# Figure 5 Inhibition of cellular N-terminal methylation by peptidomimetic inhibitors in HCT116 cells. Representative Western blot results of the effects of GD562 (A), GD564 (B), and GD573 (C) on the cellular methylation level. Image quantification was performed using ImageJ software (NIH). […] All experiments were performed in duplicate (n = 2). […]
# Cellular N-methylation level.
# The gel was transferred to a
# system. Image quantification was done using ImageJ software (NIH). All bands were compared
# OrganicsTM, AC418900050) dissolved in sterile 1 x PBS. […]
# [10] = tested on: me3-RCC1; assay: Cellular me3-RCC1 level in HCT116 cells; format: cell-based, human
# [11] = target: SAHH (Homo sapiens, UniProt P23526); assay: In-house selectivity study, fluorescence assay: coupling enzyme SAHH; format: biochemical; conditions: n = 2
# Procedure: Figure 6 In-house selectivity studies of GD562. The compound was tested at 100, 30, and 10 µM (n = 2). Both SAM and substrate are at their Km values.
# [12] = target: TbPRMT7 (Trypanosoma brucei brucei, UniProt Q582G4); assay: biochemical; conditions: read-out: inhibition of enzyme activity
# [13] = target: T5, SETD7 (Homo sapiens, UniProt Q8WTS6); assay: In-house selectivity study, fluorescence assay: SETD7; format: biochemical; conditions: read-out: inhibition of enzyme activity
# T5 construct: made in house
# T5 sequence (Q8WTS6 1-366): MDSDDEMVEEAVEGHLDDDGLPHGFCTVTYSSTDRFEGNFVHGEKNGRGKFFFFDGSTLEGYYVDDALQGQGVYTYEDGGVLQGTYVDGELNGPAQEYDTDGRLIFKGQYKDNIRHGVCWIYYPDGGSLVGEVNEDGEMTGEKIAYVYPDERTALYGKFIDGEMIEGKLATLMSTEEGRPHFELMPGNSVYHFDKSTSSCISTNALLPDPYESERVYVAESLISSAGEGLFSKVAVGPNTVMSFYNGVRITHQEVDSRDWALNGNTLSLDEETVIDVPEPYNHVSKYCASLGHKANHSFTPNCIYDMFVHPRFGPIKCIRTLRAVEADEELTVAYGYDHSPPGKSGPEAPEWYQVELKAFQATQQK
# [14] = tested on: HCT116 cells; assay: Cytotoxicity by alamarBlue assay in HCT116 cells
# Procedure: as §1, §2, §3, §4, §5, §6, §7
# [15] = tested on: me3-SET; parameters: method as in PMID 33738076; conditions: even at 300 µM in HCT116 cells; cited from earlier work
# [16] = tested on: me3-RCC1; parameters: method as in PMID 33738076; conditions: cited from earlier work
# [17] = target: T1, NTMT1; conditions: cited from earlier work
# [18] = in vitro; conditions: human
# Procedure: as §1, §2, §3, §4, §5, §6, §7
# [19] = Parallel Artificial Membrane Permeability Assay (PAMPA)
# [20] = SAHH-coupled fluorescence assay, n = 2, mean ± SD, read-out: IC50
# Chain of TbPRMT7 (Q582G4 whole entry): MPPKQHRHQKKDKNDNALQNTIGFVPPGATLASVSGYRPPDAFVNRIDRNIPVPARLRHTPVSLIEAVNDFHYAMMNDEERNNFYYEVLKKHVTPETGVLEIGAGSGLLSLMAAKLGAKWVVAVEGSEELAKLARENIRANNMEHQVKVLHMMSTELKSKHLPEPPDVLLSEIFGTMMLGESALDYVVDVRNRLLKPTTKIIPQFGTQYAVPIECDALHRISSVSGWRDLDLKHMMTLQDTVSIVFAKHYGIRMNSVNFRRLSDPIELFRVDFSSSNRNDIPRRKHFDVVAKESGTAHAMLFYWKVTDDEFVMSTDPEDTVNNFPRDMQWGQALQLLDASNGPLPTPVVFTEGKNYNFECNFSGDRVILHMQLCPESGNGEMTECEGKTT
# Chain of SAHH (P23526 whole entry, species assumed): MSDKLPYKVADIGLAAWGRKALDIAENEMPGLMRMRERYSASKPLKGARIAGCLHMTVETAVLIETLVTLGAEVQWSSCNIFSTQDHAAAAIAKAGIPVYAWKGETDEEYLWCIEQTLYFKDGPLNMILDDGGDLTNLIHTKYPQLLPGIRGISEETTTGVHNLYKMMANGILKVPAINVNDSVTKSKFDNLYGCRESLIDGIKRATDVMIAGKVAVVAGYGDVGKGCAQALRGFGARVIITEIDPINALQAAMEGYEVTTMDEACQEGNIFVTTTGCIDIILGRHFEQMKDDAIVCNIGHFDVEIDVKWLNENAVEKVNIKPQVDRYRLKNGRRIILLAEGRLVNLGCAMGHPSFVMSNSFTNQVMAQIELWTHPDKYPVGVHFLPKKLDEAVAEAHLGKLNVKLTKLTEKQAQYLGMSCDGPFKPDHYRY
# T4 sequence (Q99873 whole entry, species assumed): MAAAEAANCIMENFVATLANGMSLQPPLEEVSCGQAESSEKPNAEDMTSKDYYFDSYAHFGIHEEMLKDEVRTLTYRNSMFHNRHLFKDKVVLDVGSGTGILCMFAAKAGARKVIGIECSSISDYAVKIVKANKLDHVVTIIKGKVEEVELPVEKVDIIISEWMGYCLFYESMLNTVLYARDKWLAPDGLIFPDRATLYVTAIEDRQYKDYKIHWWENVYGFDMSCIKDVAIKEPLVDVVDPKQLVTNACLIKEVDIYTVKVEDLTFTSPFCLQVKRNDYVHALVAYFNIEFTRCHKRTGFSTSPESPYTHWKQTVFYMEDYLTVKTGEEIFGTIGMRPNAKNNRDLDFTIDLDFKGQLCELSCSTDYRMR
Compound,GI50 [1],"IC50 [3, 20]",Expt. ΔGbind ± σ [3],IC50/IC50 (DC541) [3],Papp [8],IC50 [9],other results
NCCCCC(NC(=O)C1CCCN1C(=O)Cc1cccc2ccccc12)C(=O)Nc1cccc(Br)c1 (stereo not shown) [Compound 1a],< 70 µM,0.17 ± 0.008 µM,-9.24 ± 0.04 kcal/mol,0.50,,,GI50 in NTMT1 knockout versus wild-type HCT116 cells [2]: comparable GI50 value
NCCCCC(NC(=O)C1CCCN1C(=O)Cc1cccc2ccccc12)C(=O)NCCc1ccccc1 (stereo not shown) [Compound 1d],> 300 µM,,,,0.26 ± 0.06 ×10⁻⁶ cm/s,~50 µM,"increase of inhibitory activity for the SET protein compared with DC541 [4]: over 6 fold; IC50 ([4]; Homo sapiens, HCT-116): ~50 µM; inhibition at 100 µM [5]: ≤ 50%; inhibition at 100 µM [6]: ≤ 50%; inhibition at 100 µM [7]: ≤ 50%; increase in cellular inhibition activity on me3-RCC1 compared to DC541 [10]: over 2 fold; IC50 ([10]; Homo sapiens, HCT-116): ~50 µM; inhibition at 100 µM [11]: ≤ 50%; inhibition at 100 µM [12]: ≤ 50%; inhibition at 100 µM [13]: ≤ 50%"
NCCCCC(NC(=O)C1CCCN1C(=O)Cc1cccc2ccccc12)C(=O)Nc1ccc(Br)cc1 (stereo not shown) [Compound 1b],< 70 µM,0.18 ± 0.007 µM,-9.20 ± 0.03 kcal/mol,0.53,,,
NCCCC[C@H](NC(=O)[C@@H]1CCCN1C(=O)Cc1cccc2ccccc12)C(=O)NCc1cccc(Br)c1 [Compound 1g],~130 µM,0.58 ± 0.03 µM,-8.51 ± 0.04 kcal/mol,1.7,0.6 ± 0.1 ×10⁻⁶ cm/s,< 300 µM,GI50 [14]: 128 ± 20 µM
"NCCCCC(NC(=O)C1CCCN1C(=O)Cc1cccc2ccccc12)C(=O)Nc1ccccc1C(N)=O (stereo not shown) [DC541, reference compound]",,0.34 ± 0.03 µM,-8.82 ± 0.07 kcal/mol,1.0,,,"inhibition of me3-SET level [15]: did not show any inhibition; IC50 ([16]; HCT116 cells, read-out: cellular IC50 on the me3-RCC1 level): ~100 µM"
NCCCCC(NC(=O)C1CCCN1C(=O)Cc1cccc2ccccc12)C(=O)NCCc1ccc(-c2ccccc2)cc1 (stereo not shown) [Compound 1j],,,,7.4,0.9 ± 0.3 ×10⁻⁶ cm/s,,
NCCCCC(NC(=O)C1CCCN1C(=O)Cc1cccc2ccccc12)C(=O)NCc1ccccc1 (stereo not shown) [Compound 1c],> 300 µM,0.91 ± 0.03 µM,-8.24 ± 0.03 kcal/mol,2.7,0.24 ± 0.06 ×10⁻⁶ cm/s,< 300 µM,
NCCCCC(NC(=O)C1CCCN1C(=O)Cc1cccc2ccccc12)C(=O)NCC1CCCCC1 (stereo not shown) [Compound 1f],> 300 µM,0.94 ± 0.03 µM,-8.22 ± 0.03 kcal/mol,2.8,0.47 ± 0.07 ×10⁻⁶ cm/s,~100 µM,
NCCCC[C@H](NC(=O)[C@@H]1CCCN1C(=O)Cc1cccc2ccccc12)C(=O)NCc1ccc(Br)cc1 [Compound 1h],~130 µM,0.82 ± 0.07 µM,-8.30 ± 0.07 kcal/mol,2.4,0.9 ± 0.2 ×10⁻⁶ cm/s,< 300 µM,GI50 [14]: 135 ± 23 µM
NCCCC[C@H](NC(=O)[C@@H]1CCCN1C(=O)Cc1ccc(O)cc1)C(=O)N[C@@H](CCCN=C(N)N)C(N)=O [BM30],,,,,,,"IC50 ([16]; Figure 1, previously reported inhibitors, read-out: Celluar IC50): > 1000 µM; selectivity for NTMT1/2 among a panel of 41 methyltransferases [17]: over 100 fold; IC50 ([17]; previously reported inhibitor): 0.89 ± 0.1 µM"
NCCCCC(NC(=O)C1CCCN1C(=O)Cc1cccc2ccccc12)C(=O)NCCc1cccc(-c2ccccc2)c1 (stereo not shown) [Compound 1k],< 70 µM,,,2.0,1.3 ± 0.4 ×10⁻⁶ cm/s,,GI50 [14]: 65 ± 7 µM
NCCCCC(NC(=O)C1CCCN1C(=O)Cc1cccc2ccccc12)C(=O)NCCCc1ccccc1 (stereo not shown) [Compound 1e],,,-8.44 ± 0.01 kcal/mol,1.9,,~100 µM,GI50 [18]: > 300 µM; Papp [19]: 0.17 ± 0.08 ×10⁻⁶ cm/s; IC50 [3]: 0.65 ± 0.01 µM
CN(CCc1ccccc1)C(=O)C(CCCCN)NC(=O)C1CCCN1C(=O)Cc1cccc2ccccc12 (stereo not shown) [Compound 1i],,1.7 ± 0.07 µM,,5.0,,,
